Measurements published in patent US11008337B2, “Chiral diaryl macrocycles as modulators of protein kinases” (Turning Point Therapeutics, Inc., priority 2015, dated 2021).

How the values were obtained:
Format in all cases: cell-based
[1] = test system: Colorectal cell lines KM 12 (harboring endogenous TPM3-TRKA fusion gene); test: Cell proliferation assay, KM12 cells (CellTiter-Glo); conditions: Homo sapiens, 72 hours incubation
Protocol: (§1) Cell Proliferation Assays.
Colorectal cell lines KM 12 (harboring endogenous TPM3-TRKA fusion gene) cells were cultured in DMEM medium, supplemented with 10% fetal bovine serum and 100 U/mL of penicillin/streptomycin. 5000 cells were seeded in 384 well white plate for 24 hours before compounds treatment. Cell proliferation was measured using CellTiter-Glo luciferase-based ATP detection assay (Promega) following the manufactures's protocol after 72 hours incubation. IC50 determinations were performed using GraphPad Prism software (GraphPad, Inc., San Diego, Calif.). […] 5000 cells were seeded in 384 well white plate for 24 hours before compounds treatment. Cell proliferation was measured using CellTiter-Glo luciferase-based ATP detection assay (Promega) following the manufactures's protocol after 72 hours incubation. IC50 determinations were performed using GraphPad Prism software (GraphPad, Inc., San Diego, Calif.).

EML4-ALK Ba/F3 = target: T1, EML4-ALK Ba/F3 (Homo sapiens, UniProt Q9UM73); test: Cell proliferation assay, EML4-ALK Ba/F3 stable cell line (CellTiter-Glo); conditions: Ba/F3-EML4-ALK wild type (variant 1) cells, 72 hours compound incubation; read-out: Cell Proliferation IC50 EML4-ALK Ba/F3
T1 construct: fused on or other part: Q9HC35 (Echinoderm microtubule-associated protein-like 4)
T1 sequence (Q9UM73 whole entry, change not shown, the tested form may be a part): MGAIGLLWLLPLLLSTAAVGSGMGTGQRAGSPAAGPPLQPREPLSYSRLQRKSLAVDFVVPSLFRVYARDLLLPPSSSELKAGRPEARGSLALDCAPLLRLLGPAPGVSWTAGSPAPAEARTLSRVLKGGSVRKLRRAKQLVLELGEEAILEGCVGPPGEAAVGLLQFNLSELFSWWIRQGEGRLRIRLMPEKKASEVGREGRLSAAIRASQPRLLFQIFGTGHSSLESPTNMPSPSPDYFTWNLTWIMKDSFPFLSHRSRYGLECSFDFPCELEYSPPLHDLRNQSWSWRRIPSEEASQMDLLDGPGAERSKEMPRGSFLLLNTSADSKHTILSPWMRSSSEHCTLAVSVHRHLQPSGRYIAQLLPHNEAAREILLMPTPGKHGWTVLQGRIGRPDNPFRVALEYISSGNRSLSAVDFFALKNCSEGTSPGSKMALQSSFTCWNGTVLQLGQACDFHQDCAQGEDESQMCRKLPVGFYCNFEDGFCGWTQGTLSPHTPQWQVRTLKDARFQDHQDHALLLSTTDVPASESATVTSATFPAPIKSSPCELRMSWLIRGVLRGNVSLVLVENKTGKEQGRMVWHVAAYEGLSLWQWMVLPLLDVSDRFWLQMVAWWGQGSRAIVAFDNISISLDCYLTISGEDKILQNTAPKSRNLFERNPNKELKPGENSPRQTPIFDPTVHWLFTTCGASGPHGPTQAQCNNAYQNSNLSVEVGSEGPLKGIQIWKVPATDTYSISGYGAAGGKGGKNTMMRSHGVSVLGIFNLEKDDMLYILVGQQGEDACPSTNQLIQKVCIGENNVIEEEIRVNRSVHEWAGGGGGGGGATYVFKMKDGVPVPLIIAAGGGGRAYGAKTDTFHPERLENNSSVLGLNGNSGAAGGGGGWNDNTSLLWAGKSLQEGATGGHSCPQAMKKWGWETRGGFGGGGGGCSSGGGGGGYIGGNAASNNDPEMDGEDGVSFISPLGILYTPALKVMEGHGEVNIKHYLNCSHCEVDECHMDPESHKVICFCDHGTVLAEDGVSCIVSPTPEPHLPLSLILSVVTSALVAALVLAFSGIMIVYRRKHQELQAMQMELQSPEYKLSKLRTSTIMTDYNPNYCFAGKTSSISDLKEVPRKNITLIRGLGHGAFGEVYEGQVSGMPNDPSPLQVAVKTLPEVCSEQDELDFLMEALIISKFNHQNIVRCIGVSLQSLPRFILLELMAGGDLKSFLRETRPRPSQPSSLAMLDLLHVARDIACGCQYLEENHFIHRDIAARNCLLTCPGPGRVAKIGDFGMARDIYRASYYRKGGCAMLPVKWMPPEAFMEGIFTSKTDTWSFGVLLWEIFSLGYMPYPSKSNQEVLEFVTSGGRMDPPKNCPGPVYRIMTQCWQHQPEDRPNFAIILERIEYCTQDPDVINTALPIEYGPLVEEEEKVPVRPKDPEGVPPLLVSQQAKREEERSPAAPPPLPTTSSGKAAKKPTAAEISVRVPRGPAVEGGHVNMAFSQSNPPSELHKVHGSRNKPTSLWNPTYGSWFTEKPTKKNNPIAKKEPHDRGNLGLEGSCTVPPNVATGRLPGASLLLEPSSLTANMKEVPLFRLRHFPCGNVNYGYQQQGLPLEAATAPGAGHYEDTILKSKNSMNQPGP
Description: (§2) Creation of CD74-ROS1 and EML4-ALK Ba/F3 Stable Cell Lines and Cell Proliferation Assays.
(§3) The CD74-ROS1 wild-type gene and EML4-ALK wild-type gene (variant 1) were synthesized at GenScript and cloned into pCDH-CMV-MCS-EF1-Puro plasmid (System Biosciences, Inc). Ba/F3-CD74-ROS1 and Ba/F3-EML4-ALK wild type cell lines were generated by infecting Ba/F3 cells with lentivirus containing CD74-ROS1 wide-type and EML4-ALK wild type. Stable cell lines were selected by puromycin treatment, followed by IL-3 withdrawal. 3000 cells were seeded in 384 well white plate overnight before compound treatment. Cell proliferation was measured using CellTiter-Glo luciferase-based ATP detection assay (Promega) following the manufactures's protocol after 72 hours of various concentration of compound incubation. IC50 determinations were performed using GraphPad Prism software (GraphPad, Inc., San Diego, Calif.).

[2] = test system: T cell lymphoma Karpas-299 cell line (harboring endogenous NPM-ALK fusion gene); test: Cell proliferation assay, Karpas-299 cells (CellTiter-Glo); conditions: Homo sapiens, 72 hours incubation
Protocol: as §1
(§4) Colorectal cell lines KM 12 (harboring endogenous TPM3-TRKA fusion gene) cells were cultured in DMEM medium, supplemented with 10% fetal bovine serum and 100 U/mL of penicillin/streptomycin. 5000 cells were seeded in 384 well white plate for 24 hours before compounds treatment. Cell proliferation was measured using CellTiter-Glo luciferase-based ATP detection assay (Promega) following the manufactures's protocol after 72 hours incubation. IC50 determinations were performed using GraphPad Prism software (GraphPad, Inc., San Diego, Calif.). Alternatively, essential thrombocythemia cell line SET-2 cells (harboring endogenous JAK2 […] point mutation) or T cell lymphoma Karpas-299 cell line (harboring endogenous NPM-ALK fusion gene) were cultured in RPMI medium, supplemented with 10% fetal bovine serum and 100 U/mL of penicillin/streptomycin. 5000 cells were seeded in 384 well white plate for 24 hours before compounds treatment. Cell proliferation was measured using CellTiter-Glo luciferase-based ATP detection assay (Promega) following the manufactures's protocol after 72 hours incubation. IC50 determinations were performed using GraphPad Prism software (GraphPad, Inc., San Diego, Calif.).

CD74-ROS1 Ba/F3 = target: T2, CD74-ROS1 Ba/F3 (Homo sapiens, UniProt P08922); test: Cell proliferation assay, CD74-ROS1 Ba/F3 stable cell line (CellTiter-Glo); conditions: Ba/F3-CD74-ROS1 wild type cells, 72 hours compound incubation; read-out: Cell Proliferation IC50 CD74-ROS1 Ba/F3
T2 construct: fused on or other part: P04233 (HLA class II histocompatibility antigen gamma chain)
T2 sequence (P08922 whole entry, change not shown, the tested form may be a part): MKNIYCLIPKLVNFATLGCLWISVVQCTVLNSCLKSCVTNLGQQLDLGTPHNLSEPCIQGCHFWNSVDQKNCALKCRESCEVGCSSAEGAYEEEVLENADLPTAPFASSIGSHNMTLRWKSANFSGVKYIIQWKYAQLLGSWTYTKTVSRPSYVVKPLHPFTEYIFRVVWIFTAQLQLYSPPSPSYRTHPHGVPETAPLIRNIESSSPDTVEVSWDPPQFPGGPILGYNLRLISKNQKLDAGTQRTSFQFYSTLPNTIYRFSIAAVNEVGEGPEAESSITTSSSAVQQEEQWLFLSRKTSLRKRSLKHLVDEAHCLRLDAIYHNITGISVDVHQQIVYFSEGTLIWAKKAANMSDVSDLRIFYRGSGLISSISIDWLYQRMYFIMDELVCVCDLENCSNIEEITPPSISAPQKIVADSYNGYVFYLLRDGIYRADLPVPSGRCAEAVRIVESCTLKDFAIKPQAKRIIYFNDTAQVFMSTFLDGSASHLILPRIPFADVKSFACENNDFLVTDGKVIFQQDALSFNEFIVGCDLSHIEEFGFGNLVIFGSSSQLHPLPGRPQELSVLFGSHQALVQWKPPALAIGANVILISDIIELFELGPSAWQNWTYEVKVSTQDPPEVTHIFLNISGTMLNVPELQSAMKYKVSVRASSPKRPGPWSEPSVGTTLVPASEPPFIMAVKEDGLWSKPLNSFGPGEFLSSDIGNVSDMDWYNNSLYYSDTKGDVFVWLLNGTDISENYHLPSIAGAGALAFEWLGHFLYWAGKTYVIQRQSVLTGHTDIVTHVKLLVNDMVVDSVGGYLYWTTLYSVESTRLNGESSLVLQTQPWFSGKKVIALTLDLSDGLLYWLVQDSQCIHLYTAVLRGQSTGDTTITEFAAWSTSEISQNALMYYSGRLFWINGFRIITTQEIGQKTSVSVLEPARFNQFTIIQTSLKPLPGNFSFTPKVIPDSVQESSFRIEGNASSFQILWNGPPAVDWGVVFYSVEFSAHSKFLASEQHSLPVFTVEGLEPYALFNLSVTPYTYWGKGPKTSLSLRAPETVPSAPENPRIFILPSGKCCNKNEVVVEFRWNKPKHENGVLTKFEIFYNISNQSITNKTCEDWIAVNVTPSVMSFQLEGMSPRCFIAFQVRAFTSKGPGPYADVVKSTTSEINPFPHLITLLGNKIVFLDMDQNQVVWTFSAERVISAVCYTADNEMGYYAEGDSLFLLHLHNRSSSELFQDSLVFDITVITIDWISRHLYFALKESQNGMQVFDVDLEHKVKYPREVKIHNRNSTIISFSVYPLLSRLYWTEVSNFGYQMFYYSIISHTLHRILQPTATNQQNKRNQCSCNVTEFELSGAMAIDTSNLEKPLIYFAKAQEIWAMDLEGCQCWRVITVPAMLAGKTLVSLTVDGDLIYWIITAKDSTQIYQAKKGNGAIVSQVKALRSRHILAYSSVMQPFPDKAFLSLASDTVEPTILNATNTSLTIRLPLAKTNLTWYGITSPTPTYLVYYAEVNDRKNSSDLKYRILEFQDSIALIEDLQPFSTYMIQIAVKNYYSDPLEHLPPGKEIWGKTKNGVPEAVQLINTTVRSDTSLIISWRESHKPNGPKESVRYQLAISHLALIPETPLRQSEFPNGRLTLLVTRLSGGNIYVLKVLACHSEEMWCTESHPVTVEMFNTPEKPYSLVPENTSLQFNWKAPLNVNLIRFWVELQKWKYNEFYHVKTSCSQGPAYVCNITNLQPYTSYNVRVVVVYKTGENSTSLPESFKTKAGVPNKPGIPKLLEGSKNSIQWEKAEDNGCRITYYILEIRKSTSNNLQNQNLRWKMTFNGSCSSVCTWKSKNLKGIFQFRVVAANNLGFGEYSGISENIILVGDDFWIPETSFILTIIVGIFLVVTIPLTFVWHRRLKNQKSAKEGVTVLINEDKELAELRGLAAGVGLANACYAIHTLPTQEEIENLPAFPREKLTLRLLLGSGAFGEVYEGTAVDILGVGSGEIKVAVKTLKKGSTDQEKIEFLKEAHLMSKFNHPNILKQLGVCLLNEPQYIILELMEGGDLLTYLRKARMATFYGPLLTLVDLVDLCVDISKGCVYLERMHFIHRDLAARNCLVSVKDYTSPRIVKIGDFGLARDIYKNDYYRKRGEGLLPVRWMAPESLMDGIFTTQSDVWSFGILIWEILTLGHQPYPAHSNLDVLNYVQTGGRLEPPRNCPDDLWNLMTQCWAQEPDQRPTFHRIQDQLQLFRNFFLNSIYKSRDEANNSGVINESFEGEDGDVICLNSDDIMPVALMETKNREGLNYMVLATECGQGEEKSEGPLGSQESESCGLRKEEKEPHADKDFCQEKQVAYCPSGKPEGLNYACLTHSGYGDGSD
Description: as §2, §3

[3] = test system: essential thrombocythemia cell line SET-2 cells (harboring endogenous JAK2 point mutation); test: Cell proliferation assay, SET-2 cells (CellTiter-Glo); conditions: Homo sapiens, 72 hours incubation, read-out: Cell Proliferation IC50 SET2
Protocol: as §1, §4

| Structure (SMILES) | IC50 [1] [nM] | GI50 (EML4-ALK Ba/F3) [nM] | IC50 [2] [nM] | GI50 (CD74-ROS1 Ba/F3) [nM] | IC50 [3] [nM] |
| --- | --- | --- | --- | --- | --- |
| CC[C@@H]1COc2ccc(F)cc2[C@@H](C)Nc2ccn3ncc(c3n2)C(=O)N1 [Compound 2, (6R,13R)-6-ethyl-11-fluoro-13-methyl-6,7,13,14-tetrahydro-1,15-ethenopyrazolo[4,3-f][1,4,8,10]benzoxatriazacyclotridecin-4(5H)-one] | 6 | 681 | 354 | 0.7 | 956 |
| CC[C@H]1CNC(=O)c2cnn3ccc(nc23)N[C@H](C)c2cc(F)ccc2O1 [Compound 3, (7S,13R)-7-ethyl-11-fluoro-13-methyl-6,7,13,14-tetrahydro-1,15-ethenopyrazolo[4,3-f][1,4,8,10]benzoxatriazacyclotridecin-4(5H)-one] | 0.3 | 138 | 83 | 0.2 | 263 |
| CC[C@H]1COc2ccc(F)cc2[C@@H](C)Nc2ccn3ncc(c3n2)C(=O)N1 [Compound 4, (6S,13R)-6-ethyl-11-fluoro-13-methyl-6,7,13,14-tetrahydro-1,15-ethenopyrazolo[4,3-f][1,4,8,10]benzoxatriazacyclotridecin-4(5H)-one] | 0.3 | 892 | 1370 | 0.2 | 1370 |
| C[C@H]1Nc2ccn3ncc(c3n2)C(=O)NC[C@H](CO)Oc2ccc(F)cc21 [Compound 5, (7R,13R)-11-fluoro-7-(hydroxymethyl)-13-methyl-6,7,13,14-tetrahydro-1,15-ethenopyrazolo[4,3-f][1,4,8,10]benzoxatriazacyclotridecin-4(5H)-one] | 16.5 | 2030 | 794 | 27.9 | 852 |
| C[C@H]1Nc2ccn3ncc(c3n2)C(=O)N[C@@H](CO)COc2ccc(F)cc21 [Compound 6, (6S,13R)-11-fluoro-6-(hydroxymethyl)-13-methyl-6,7,13,14-tetrahydro-1,15-ethenopyrazolo[4,3-f][1,4,8,10]benzoxatriazacyclotridecin-4(5H)-one] | 0.5 | 116 | 65 | 2.8 | 164 |
| C[C@H]1Nc2ccn3ncc(c3n2)C(=O)NC[C@@H](CO)Oc2ccc(F)cc21 [Compound 7, (7S,13R)-11-fluoro-7-(hydroxymethyl)-13-methyl-6,7,13,14-tetrahydro-1,15-ethenopyrazolo[4,3-f][1,4,8,10]benzoxatriazacyclotridecin-4(5H)-one] | 16.8 | 715 | 438 | 22.6 | 190 |
| C[C@H]1Nc2ccn3ncc(c3n2)C(=O)N[C@H](CO)COc2ccc(F)cc21 [Compound 8, (6R,13R)-11-fluoro-6-(hydroxymethyl)-13-methyl-6,7,13,14-tetrahydro-1,15-ethenopyrazolo[4,3-f][1,4,8,10]benzoxatriazacyclotridecin-4(5H)-one] | 17 | 2130 | 1500 | 34.7 | 406 |
| C[C@H]1Nc2ccn3ncc(c3n2)C(=O)NC[C@H](CF)Oc2ccc(F)cc21 [Compound 9, (7R,13R)-11-fluoro-7-(fluoromethyl)-13-methyl-6,7,13,14-tetrahydro-1,15-ethenopyrazolo[4,3-f][1,4,8,10]benzoxatriazacyclotridecin-4(5H)-one] | 0.4 | 0.2 | 73 | 0.2 | 93 |
| C[C@H]1Nc2ccn3ncc(c3n2)C(=O)NC[C@@H](CF)Oc2ccc(F)cc21 [Compound 10, (7S,13R)-11-fluoro-7-(fluoromethyl)-13-methyl-6,7,13,14-tetrahydro-1,15-ethenopyrazolo[4,3-f][1,4,8,10]benzoxatriazacyclotridecin-4(5H)-one] | 1.4 | 96.3 | 80 | 0.2 | 57 |
| C[C@H]1Nc2ccn3ncc(c3n2)C(=O)N[C@H](CF)COc2ccc(F)cc21 [Compound 11, (6S,13R)-11-fluoro-6-(fluoromethyl)-13-methyl-6,7,13,14-tetrahydro-1,15-ethenopyrazolo[4,3-f][1,4,8,10]benzoxatriazacyclotridecin-4(5H)-one] | 2 | 2430 | 590 | 18.9 | 187 |
| C[C@H]1Nc2ccn3ncc(c3n2)C(=O)NC[C@H](CN(C)C)Oc2ccc(F)cc21 [Compound 12, (7R,13R)-7-[(dimethylamino)methyl]-11-fluoro-13-methyl-6,7,13,14-tetrahydro-1,15-ethenopyrazolo[4,3-f][1,4,8,10]benzoxatriazacyclotridecin-4(5H)-one] | 42 | 5100 | 2270 | 130 | 1960 |
| C[C@H]1Nc2ccn3ncc(c3n2)C(=O)N[C@@H](CN(C)C)COc2ccc(F)cc21 [Compound 13, (6S,13R)-6-[(dimethylamino)methyl]-11-fluoro-13-methyl-6,7,13,14-tetrahydro-1,15-ethenopyrazolo[4,3-f][1,4,8,10]benzoxatriazacyclotridecin-4(5H)-one] | 69 | 1480 | 3220 | 112 | 4030 |
| CNC(=O)[C@@H]1CNC(=O)c2cnn3ccc(nc23)N[C@H](C)c2cc(F)ccc2O1 [Compound 14, (7S,13R)-7-(N-methylcarboxamide)-11-fluoro-13-methyl-6,7,13,14-tetrahydro-1,15-ethenopyrazolo[4,3-f][1,4,8,10]benzoxatriazacyclotridecin-4(5H)-one] | 180 | > 10000 | > 10000 | 300 | 3780 |
| CNC(=O)[C@H]1CNC(=O)c2cnn3ccc(nc23)N[C@H](C)c2cc(F)ccc2O1 [Compound 15, (7R,13R)-7-(N-methylcarboxamide)-11-fluoro-13-methyl-6,7,13,14-tetrahydro-1,15-ethenopyrazolo[4,3-f][1,4,8,10]benzoxatriazacyclotridecin-4(5H)-one] | 160 | > 10000 | > 10000 | 1000 | 4790 |
| C[C@H]1Nc2ccn3ncc(c3n2)C(=O)N[C@@H](C(F)F)COc2ccc(F)cc21 [Compound 16, (6R,13R)-6-(difluoromethyl)-11-fluoro-13-methyl-6,7,13,14-tetrahydro-1,15-ethenopyrazolo[4,3-f][1,4,8,10]benzoxatriazacyclotridecin-4(5H)-one] | 0.4 | 1910 | 470 | 112 | 665 |
| C[C@H]1Nc2ccn3ncc(c3n2)C(=O)N[C@H](C(F)F)COc2ccc(F)cc21 [Compound 17, (6S,13R)-6-(difluoromethyl)-11-fluoro-13-methyl-6,7,13,14-tetrahydro-1,15-ethenopyrazolo[4,3-f][1,4,8,10]benzoxatriazacyclotridecin-4(5H)-one] | 0.2 | 2690 | 297 | 3 | 5 |
| C[C@H]1Nc2ccn3ncc(c3n2)C(=O)NC[C@H](C(F)F)Oc2ccc(F)cc21 [Compound 18, (7R,13R)-7-(difluoromethyl)-11-fluoro-13-methyl-6,7,13,14-tetrahydro-1,15-ethenopyrazolo[4,3-f][1,4,8,10]benzoxatriazacyclotridecin-4(5H)-one] | 0.2 | 28.4 | 24.7 | 0.2 | 98.6 |
